target: human recombinant H-PGDS (Homo sapiens, UniProt O60760); experiment: Fluorescence Intensity h-PGDS TBA Enzyme Assay; format: biochemical; settings: 1:175,000 human recombinant H-PGDS, highest inhibitor concentration typically 1 μM
Outline: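 Readout is PGH2 depletion: after a 42 s reaction with 5.0 μM PGH2 and 2.5 mM glutathione (pH 8.0 Tris, 10 min inhibitor preincubation), Fe(II) converts leftover PGH2 to MDA, which forms a fluorescent TBA complex. IC50s come from 11-point, 3-fold duplicate curves, 4-parameter fit.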

Sequence of human recombinant H-PGDS (O60760 whole entry): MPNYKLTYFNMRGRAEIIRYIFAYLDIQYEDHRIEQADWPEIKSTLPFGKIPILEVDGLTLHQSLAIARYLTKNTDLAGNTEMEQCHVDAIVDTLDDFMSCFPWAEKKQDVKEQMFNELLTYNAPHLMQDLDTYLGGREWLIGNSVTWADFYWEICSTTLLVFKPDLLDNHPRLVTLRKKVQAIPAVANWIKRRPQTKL

| Compound | IC50 [nM] |
| --- | --- |
| COc1ccc(CNC(=O)c2ccc(-c3ccc(F)cc3)nc2)cc1 [Example 478, 6-(4-Fluorophenyl)-N-(4-methoxybenzyl)nicotinamide] | 377 |
| O=C(NC1CCN(Cc2ccc(Cl)c(Cl)c2)C1=O)c1ccc(-c2ccc(F)cc2)nc1 (stereo not drawn) [Example 479, N-[1-(3,4-Dichlorobenzyl)-2-oxopyrrolidin-3-yl]-6-(4-fluorophenyl)nicotinamide] | 896 |
| Cc1ccc(CNC(=O)c2ccc(-c3ccc(F)cc3)nc2)cc1 [Example 480, 6-(4-Fluorophenyl)-N-(4-methylbenzyl)nicotinamide] | 327 |
| COc1cccc(-c2ccc(C(=O)NCc3ccc(S(N)(=O)=O)cc3)cn2)c1 [Example 481, N-[4-(Aminosulfonyl)benzyl]-6-(3-methoxyphenyl) nicotinamide] | 365 |
| O=C(NCc1ccc(F)cc1)c1ccc(-c2ccc(F)cc2)nc1 [Example 482, N-(4-Fluorobenzyl)-6-(4-fluorophenyl)nicotinamide] | 527 |
| COc1cccc(-c2ccc(C(=O)NCc3ccc(Cl)c(Cl)c3)cn2)c1 [Example 483, N-(3,4-Dichlorobenzyl)-6-(3-methoxyphenyl) nicotinamide] | 151 |
| COc1cccc(-c2ccc(C(=O)NCc3ccc(C)cc3)cn2)c1 [Example 484, 6-(3-Methoxyphenyl)-N-(4-methylbenzyl)nicotinamide] | 178 |
| COc1cccc(-c2ccc(C(=O)Nc3cccnc3)cn2)c1 [Example 485, 6-(3-Methoxyphenyl)-N-pyridin-3-ylnicotinamide] | 201 |
| COc1cccc(-c2ccc(C(=O)NCCNc3ccccc3)cn2)c1 [Example 486, N-(2-Anilinoethyl)-6-(3-methoxyphenyl)nicotinamide] | 204 |
| COc1cccc(-c2ccc(C(=O)NCCC3CCN(C)CC3)cn2)c1 [Example 487, 6-(3-Methoxyphenyl)-N-[2-(1-methylpiperidin-4-yl)ethyl]nicotinamide] | ≥ 1000 |
| Cc1cccc(-c2ccc(C(=O)Nc3cccnc3)cn2)c1 [Example 488, 6-(3-Methylphenyl)-N-pyridin-3-ylnicotinamide] | 11.4 |
| Cc1cccc(-c2ccc(C(=O)NCc3ccc(Br)cc3)cn2)c1 [Example 489, N-(4-Bromobenzyl)-6-(3-methylphenyl)nicotinamide] | 214 |
| Cc1cccc(-c2ccc(C(=O)NCCNc3ccccc3)cn2)c1 [Example 490, N-(2-Anilinoethyl)-6-(3-methylphenyl)nicotinamide] | 39.9 |
| Cc1ccccc1CNC(=O)c1ccc(-c2ccc(F)cc2)nc1 [Example 491, 6-(4-Fluorophenyl)-N-(2-methylbenzyl)nicotinamide] | 139 |
| CCC(C)NC(=O)c1ccc(-c2ccc(F)cc2)nc1 (stereo not drawn) [Example 492, N-sec-Butyl-6-(4-fluorophenyl)nicotinamide] | ≥ 1000 |
| O=C(NCCN1CCCCC1=O)c1ccc(-c2ccc(F)cc2)nc1 [Example 493, 6-(4-Fluorophenyl)-N-[2-(2-oxopiperidin-1-yl)ethyl]nicotinamide] | 980 |
| COC(=O)CCNC(=O)c1ccc(-c2ccc(F)cc2)nc1 [Example 494, Methyl N-{[6-(4-fluorophenyl)pyridin-3-yl]carbonyl}-beta-alaninate] | 758 |
| CCOC(=O)C1(NC(=O)c2ccc(-c3ccc(F)cc3)nc2)CCOCC1 [Example 495, Ethyl 4-({[6-(4-fluorophenyl)pyridin-3-yl]carbonyl}amino)tetrahydro-2H-pyran-4-carboxylate] | ≥ 1000 |
| Cc1noc(CCNC(=O)c2ccc(-c3ccc(F)cc3)nc2)n1 [Example 496, 6-(4-Fluorophenyl)-N-[2-(3-methyl-1,2,4-oxadiazol-5-yl)ethyl]nicotinamide] | 429 |
| COC(C)(C)CNC(=O)c1ccc(-c2ccc(F)cc2)nc1 [Example 497, 6-(4-Fluorophenyl)-N-(2-methoxy-2-methylpropyl)nicotinamide] | ≥ 1000 |
| O=C(NCC1CCCCO1)c1ccc(-c2ccc(F)cc2)nc1 (stereo not drawn) [Example 498, 6-(4-Fluorophenyl)-N-(tetrahydro-2H-pyran-2-ylmethyl)nicotinamide] | ≥ 1000 |

— patent US20110306597A1, “Nicotinamide Derivatives” (priority 2008, published 2011)
